We go through three compounds from patent US20240255509A1, “COMPOSITIONS AND METHODS RELATED TO K180 DIMETHYLATED H1.0 PROTEIN” (Aelan Cell Technologies, Inc., priority 2016, published 2024).

The target of one test is T1, PARP-1 (Homo sapiens, UniProt P09874).
T1 construct: endogenous in cells; host or cells: hADSCs (inferred)
In words: Western blot of PARP-1 inhibitor activity in whole cell lysates (poly-(ADP)-ribose levels). The format is cell-based. The following applies: 1 μM for 24 hours. The source says:
(§1) Material for western blot analysis (cultured cells or tissue) was lysed in ice-cold RIPA lysis buffer (Thermo Scientific 89900) and sonicated using a Covaris S2 sonicator (10% duty cycle, Intensity 5, Bursts per minute 100, 120 seconds). Total protein concentration in each sample was quantified using Quick Start Bradford 1× Dye Reagent (BioRad, 5000205) following manufacturer's protocol. Samples were then mixed with NUPAGE LDS sample loading buffer (ThermoFisher, NP0007) and NUPAGE sample reducing buffer (ThermoFisher, NP0004), and heat denatured at 70° C. for 10 minutes. Proteins were separated on 4-12% precast polyacrylamide gels (ThermoFisher, NP0321) by electrophoresis and transferred to 0.45 μm nitrocellulose membrane. […] Proteins were detected with HRP secondary antibodies listed above for 1 hour at RT followed by ECL Western Blotting Substrate (ThermoFisher, 32106) using manufacturer's instructions. […]
(§2) To further assess if H1.0K180 methylation is dependent on the DNA damage repair pathway protein PARP-1 activity, western blot analysis was performed according to methods described in Example 1, to examine chromatin-bound H1.0K180me2 and γH2A.X upon treatment with bleomycin. […] Thus it was determined that H1.0K180 methylation is independent of DNA damage repair pathway protein PARP-1 activity
On the technique in general: In western blotting, separated proteins are transferred to a membrane and probed.

In test [1] the test system is chromatin-bound H1.0K180me2 and γH2A.X. Put plainly: Western blot of chromatin-bound H1.0K180me2 and γH2A.X upon bleomycin with PARP-1 inhibition. The format is cell-based, human. The conditions noted are these: 1 μM for 24 hours, bleomycin treatment.
Source text: as §1, §2

Test [2] relates to H1.0K180me2. In words: Western blot for H1.0K180me2 in SR hADSCs treated with bleomycin after rapamycin or everolimus pretreatment. The format is cell-based, human. The conditions noted are these: 500 nM, 24 hours pretreatment, then bleomycin 2 hours.
Source text: as §1
To test if rapamycin derivatives may block H1.0K180me2 appearance upon DNA damage, SR hADSCs were treated with bleomycin for 2 hours with or without pretreatment with rapamycin or everolimus (a derivative of rapamycin) for 24 hours. Cells were then lysed and analyzed be western blot for H1.0K180me2, γH2A.X and β-Actin, according to methods described in Example 1.

The test system of test [3] is H1.0K180me2. Put plainly: Western blot for H1.0K180me2 in SR hADSCs after bleomycin or temozolomide. The format is cell-based, human. The conditions noted are these: SR hADSCs treated for 2 hours, 50 μg/ml. The source says:
Material for western blot analysis (cultured cells or tissue) was lysed in ice-cold RIPA lysis buffer (Thermo Scientific 89900) and sonicated using a Covaris S2 sonicator (10% duty cycle, Intensity 5, Bursts per minute 100, 120 seconds). Total protein concentration in each sample was quantified using Quick Start Bradford 1× Dye Reagent (BioRad, 5000205) following manufacturer's protocol. Samples were then mixed with NUPAGE LDS sample loading buffer (ThermoFisher, NP0007) and NUPAGE sample reducing buffer (ThermoFisher, NP0004), and heat denatured at 70° C. for 10 minutes. Proteins were separated on 4-12% precast polyacrylamide gels (ThermoFisher, NP0321) by electrophoresis and transferred to 0.45 μm nitrocellulose membrane. The membrane was blocked with 5% non-fat milk in PBS-T for 30 minutes at RT then immunoblotted with the above primary antibodies at 4° C. overnight. Proteins were detected with HRP secondary antibodies listed above for 1 hour at RT followed by ECL Western Blotting Substrate (ThermoFisher, 32106) using manufacturer's instructions. All washes between steps were with PBS-T. Membranes were imaged with Omega LUM-C imaging system (Gel Company). […]
SR hADSCs were treated for 2 hours with bleomycin or temozolomide, a compound that triggers base excision repair pathways. Cells were then lysed and analyzed be western blot for H1.0K180me2, γH2A.X and β-Actin.

The test system of a further test is Chromatin bound H1.0. In words: LC-MS/MS of soluble and chromatin bound fractions of hADSCs after bleomycin. The format is cell-based, human. The protocol:
(§3) For replicative senescence, hADSCs were grown in culture until reaching replicative exhaustion (PD 41-46). For acute DNA damage conditions, SR hADSCs (PD 4-10) were treated with 50 μg/ml bleomycin sulfate (Cayman Chemical, 13877) in growth media for 2 hours. For genotoxic stress-induced senescence, SR hADSCs (PD 4-10) were treated with 50 μg/ml bleomycin sulfate (Cayman Chemical, 13877) in growth media for 2 hours then washed with PBS and given fresh growth media without bleomycin. Cells were then grown for 3 days before collection.
SR hADSCs, hADSCs treated with bleomycin for 2 hours (acute DNA damage) and hADSCs treated with bleomycin and allowed to senesce for 3 days (genotoxic stress induced senescence) were lysed and fractionated into soluble and chromatin bound fractions. These fractions were then subjected to LC-MS/MS analysis. Peptide expression levels were taken as the total area under the LC-MS/MS relative intensity curve, and individual peptides were unambiguously assigned to proteins using Pinpoint software, version 1.4 (Thermo Scientific). The areas of all peptides assigned to an individual protein were summed to yield protein expression levels, which were normalized against the total protein library size for each sample. For each cellular fraction, H1.0 peptide abundance is represented as a percentage of total H1.0 peptides observed in each condition. […]

The test system of the next test is secreted H1.0K180me2. In words: Slot blot of conditioned medium of hADSCs after bleomycin (secretion). The format is cell-based, human. As for the experimental part:
0.5 μl of serum sample or known amounts of synthesized peptide were diluted in 200 μl TBS. Samples were then heat denatured at 70° C. for 10 minutes before being transferred to nitrocellulose membrane using a vacuum manifold slot blot apparatus (BioRad, 1706542). The membrane was blocked with 5% non-fat milk in PBS-T for 30 minutes at RT then immunoblotted with the above primary antibodies at 4° C. overnight. Proteins were detected with HRP secondary antibodies listed above for 1 hour at RT followed by ECL Western Blotting Substrate (ThermoFisher, 32106) using manufacturer's instructions. All washes between steps were with PBS-T. Membranes were imaged with Omega LUM-C imaging system (Gel Company). Slot blot bands for each sample were then quantified using ImageJ.
This signifies secretion out of the cells. An increase in DNA fragmentation factor (DFFB/DFF40/CAD) secretion upon GSI-SEN was seen, in a similar manner to H1.0K180me2 starting 48 hours after treatment (FIG. 7B).
SR hADSCs, hADSCs treated with bleomycin for 2 hours (acute DNA damage) and hADSCs treated with bleomycin and allowed to senesce for 3 days (genotoxic stress induced senescence) were lysed and fractionated into soluble and chromatin bound fractions. These fractions were then subjected to LC-MS/MS analysis. Peptide expression levels were taken as the total area under the LC-MS/MS relative intensity curve, and individual peptides were unambiguously assigned to proteins using Pinpoint software, version 1.4 (Thermo Scientific). The areas of all peptides assigned to an individual protein were summed to yield protein expression levels, which were normalized against the total protein library size for each sample. For each cellular fraction, H1.0 peptide abundance is represented as a percentage of total H1.0 peptides observed in each condition. Normalized absolute values of H1.0 peptide levels in each fraction were also shown. […] Culture media from SR hADSCs treated with bleomycin was collected for slot blot analysis with α-H1.0 and α-H1.0K180me2 antibodies to assess secretion of H1.0 to the extracellular matrix (ECM). The experiment was carried out according to methods described in Example 1.

Test [4] concerns H1.0K180me2. Put plainly: H1.0K180me2 on chromatin (western blot) and localization in hADSCs after bleomycin. The format is cell-based, human. As for the experimental part:
as §3
as §1, with “minutes.” for “minutes. Proteins were separated on 4-12% precast polyacrylamide gels (ThermoFisher, NP0321) by electrophoresis and transferred to 0.45 μm nitrocellulose membrane.”

Another test has as its system histone H1.0 mRNA. In words: RT-PCR analysis of histone H1.0 mRNA expression in hADSCs after bleomycin. The format is cell-based, human. The protocol: as §3
RT-PCR analysis of histone H1.0 mRNA expression was performed on total RNA derived from self-replicating hADSCs, hADSCs treated with bleomycin for 2 hours (acute DNA damage) and hADSCs treated with bleomycin and allowed to senesce for 3 days (genotoxic stress-induced senescence). H1.0 mRNA expression increases over 2-fold upon acute DNA damage, and remains elevated (1.5-fold over SR) upon genotoxic stress induced senescence.

The mark [5] stands for this setting: acute DNA damage: bleomycin for 2 hours.
[6] abbreviates: genotoxic stress induced senescence: bleomycin, then 3 days.

Some results are limits rather than exact numbers.

T1 sequence (P09874 whole entry): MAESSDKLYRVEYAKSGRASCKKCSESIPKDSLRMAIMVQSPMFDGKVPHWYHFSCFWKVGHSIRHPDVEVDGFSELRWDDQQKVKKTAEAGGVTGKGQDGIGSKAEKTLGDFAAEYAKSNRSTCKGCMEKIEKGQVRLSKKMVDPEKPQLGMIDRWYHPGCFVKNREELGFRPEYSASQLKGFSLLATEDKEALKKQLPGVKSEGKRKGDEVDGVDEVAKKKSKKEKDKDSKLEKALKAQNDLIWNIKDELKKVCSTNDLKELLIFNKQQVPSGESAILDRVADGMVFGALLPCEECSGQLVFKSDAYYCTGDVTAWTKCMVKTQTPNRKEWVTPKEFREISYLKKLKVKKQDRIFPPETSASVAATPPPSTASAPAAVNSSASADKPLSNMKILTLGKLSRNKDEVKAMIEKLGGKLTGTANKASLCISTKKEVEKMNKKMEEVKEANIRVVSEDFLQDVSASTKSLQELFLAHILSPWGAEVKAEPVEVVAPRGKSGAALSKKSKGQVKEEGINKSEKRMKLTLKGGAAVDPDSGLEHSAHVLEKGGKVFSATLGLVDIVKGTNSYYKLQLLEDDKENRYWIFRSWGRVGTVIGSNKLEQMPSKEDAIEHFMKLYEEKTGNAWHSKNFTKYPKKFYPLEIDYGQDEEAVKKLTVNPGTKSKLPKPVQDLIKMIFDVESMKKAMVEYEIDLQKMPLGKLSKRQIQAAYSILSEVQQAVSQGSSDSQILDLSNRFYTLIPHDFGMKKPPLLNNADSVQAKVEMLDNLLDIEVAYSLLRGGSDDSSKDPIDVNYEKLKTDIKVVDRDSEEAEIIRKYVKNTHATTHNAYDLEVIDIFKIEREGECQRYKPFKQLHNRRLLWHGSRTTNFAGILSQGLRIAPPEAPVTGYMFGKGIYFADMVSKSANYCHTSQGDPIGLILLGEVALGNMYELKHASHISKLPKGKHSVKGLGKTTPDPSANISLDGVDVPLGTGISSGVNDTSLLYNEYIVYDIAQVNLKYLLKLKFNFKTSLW

As for `CN(C)Cc1ccc(-c2nc3cccc4c3n2CCNC4=O)cc1` [AG14361], the “poly-(ADP)-ribose (PAR) levels increased upon bleomycin treatment” value on PARP-1 is recorded as “abolished”. Further, in test [1], the “accumulation of chromatin-bound H1.0K180me2” value is reported as “increased accumulation” and the “accumulation of chromatin-bound γH2A.X” value is recorded as “increased accumulation”.

Take `CO[C@H]1C[C@@H]2CC[C@@H](C)[C@@](O)(O2)C(=O)C(=O)N2CCCC[C@H]2C(=O)O[C@H]([C@H](C)C[C@@H]2CC[C@@H](OCCO)[C@H](OC)C2)CC(=O)[C@H](C)/C=C(\C)[C@@H](O)[C@@H](OC)C(=O)[C@H](C)C[C@H](C)/C=C/C=C/C=C/1C` [everolimus, Everolimus]: the “appearance of H1.0K180me2 upon bleomycin treatment” value with H1.0K180me2 [2] is listed as “reduced the appearance of H1.0K180me2”.

Consider bleomycin sulfate, for which the “induction of H1.0K180me2 methylation” value with H1.0K180me2 [3] is reported as “capable of inducing H1.0K180me2 methylation”. Also, the “Chromatin bound H1.0, % of total H1.0 peptides” value is approximately 60% in the test on Chromatin bound H1.0 (setting [5]) and approximately 30% with Chromatin bound H1.0 (setting [6]). The “DNA fragmentation factor (DFFB/DFF40/CAD) secretion” value in the test on secreted H1.0K180me2 (GSI-SEN, starting 48 hours after treatment) is “increase”. Further, the “secretion of H1.0K180me2 and DFFB upon onset of acute DNA damage (ADD)” value with secreted H1.0K180me2 (acute DNA damage) is listed as “None of the protein is secreted in measurable quantities”. Moreover, the “secreted H1.0K180me2 in cell culture media” value with secreted H1.0K180me2 (after 24 hours of bleomycin treatment) is given as “readily detected”. Besides, in the test with secreted H1.0K180me2 (time course after bleomycin), the “time of maximal H1.0K180me2 secretion into conditioned medium” value was not above 48 h. Further, the “localization of H1.0K180me2” value in the test with H1.0K180me2 [4] (SR hADSCs treated with bleomycin) is “localized to the cytoplasm”. Moreover, the “methylation of H1.0K180 on chromatin” value in the test with H1.0K180me2 [4] (bleomycin for 2 hours, chromatin bound fraction, western blot) was “methylation of H1.0K180 on the chromatin”. Moreover, the “H1.0 mRNA expression increase over SR” value with histone H1.0 mRNA (setting [5]) is “over 2 fold”; with histone H1.0 mRNA (setting [6]) it was 1.5 fold.
